{"source": "patent US8703419B2", "about": "“Method for diagnosis/prognosis of cancers using an epigenetic marker consisting of a specific single CpG site in TTP promoter and treatment of cancers by regulating its epigenetic status” (Korea Research Institute of Bioscience and Biotechnology, priority 2009, dated 2014)", "assay_type_in_all_cases": "cell-based, human", "key": {"[1]": {"tested_on": "TTP expression in PLC/PRF/5 and SK-Hep1 cells", "test": "TGFβ1-mediated TTP induction with or without AzadC (RT-PCR)", "method": "(§1) Total RNA was extracted from the HCC cell lines by using RNeasy mini kit (QIAGEN, USA). Distilled water was added to 1 μg of the total RNA and 1 μl of oligo-d(T) (Invitrogen, USA, 0.5 μg/μl) to make the total volume of the mixture 50 μl, followed by RT-PCR in AccuPower RT-premix (Bioneer, Korea). Before RT-PCR, cDNA was synthesized as follows: at 70° C. for 5 minutes, at 4° C. for 5 minutes, at 42° C. for 60 minutes, at 94° C. for 5 minutes, and at 4° C. for 5 minutes to produce cDNA. PCR was performed by using the obtained cDNA (3˜5 μl) or distilled water (negative control) as a template with the primer set as shown in Table 1 and PCR Master Mix (Promega, USA). PCR conditions were as follows: pre-denaturation at 95° C. for 5 minutes, denaturation at 95° C. for 45 seconds, annealing at 65° C. for […], polymerization at 72° C. for 45 seconds, 35 cycles from denaturation to polymerization, final extension at 72° C. for 5 minutes, and cooling at 4° C. The amplified product was quantified via standardization with β-actin.\nTGFβ1 (R&D systems, USA) was treated thereto at the concentration of 5 μg/l for 0, 0.5, 1, 1.5, 3, 6, and 12 hours."}, "TTP promoter": {"tested_on": "TTP promoter", "test": "TTP promoter luciferase reporter assay", "conditions": "SK-Hep1 cells; no AzadC", "method": "To confirm that TTP expression is directly controlled by methylation of the #2 CpG site, the present inventors examined the transcriptional activity of the TTP promoter region in relation to the methylation status of the #2 CpG site using luciferase reporter assays.\nLuciferase assays were performed using the Promega Luciferase Assay System (Promega, USA), according to the manufacturer's protocol. Luciferase reporter constructs were generated by amplifying TTP promoter regions from normal human genomic DNA (BioChain, USA) using the primer sets shown in Table 5 according to the method of Example <1-2>.\nAs a result, wild-type promoter (WT), a single base-substituted promoter (C→T), and TRR-deleted promoter (Del) were constructed. These promoters were cloned into the KpnI/BglII sites of pGL3-basic vector (Promega, USA). Ligated products were amplified in E. coli. After purification, the ligated products were transfected into SK-Hep1 cells by using LipofectAMINE Plus reagent (Invitrogen). Specifically, the luciferase reporter constructs (0.25 μg) were co-transfected with a control plasmid (0.05 μg) encoding renilla into 1×10^5 cells/well in 12-well plates. At that time, AzadC was treated 12 hours before the transfection. After treating with TGFβ1, luciferase activities were measured using a luminometer (Berthold Lumat LB9501, Bad Wildbad, Germany). […]"}, "[2]": {"tested_on": "RNAPII binding to the TTP locus", "test": "ChIP analysis of RNAPII binding to the TTP locus", "conditions": "PLC/PRF/5 cells; regardless of AzadC treatment", "text": "To establish the molecular mechanism of epigenetic regulation of TTP, the present inventors estimated the levels of different forms of phosphorylated RNAPII (RNA polymerase II) proteins bound to the TTP locus by ChIP (chromatin immunoprecipitation) analysis, i.e., unphosphorylated form (unP) as a measure of transcriptional initiation, and those phosphorylated at serine 5 (pS5) and serine 2 (pS2) of the carboxy-terminal repeat domain as a measure of promoter escape/capping and transcriptional elongation, respectively.\n(§2) ChIP analysis was performed using a specific assay kit (Millipore, USA) according to manufacturer's specifications. SK-Hep1 and PLC/PRF/5 cells were pre-treated or not treated with AzadC for 72 hours, to which TGFβ1 was additionally treated or not treated. The cells were treated with formaldehyde, leading to the binding of DNA to the protein (DNA conjugated protein), followed by cell lysis. After DNA fractionation, the antibody to RNAPII protein shown in Table 7 was added thereto, followed by reaction at 4° C. for overnight. The antibody was isolated by adding 50 μl of Protein A/G PLUS-Agarose. At this time, the DNA specifically bound to the antibody was purified. The purified DNA proceeded to PCR using the primer sets of Table 8."}, "[3]": {"tested_on": "acetylation of histones H3 and H4 at TRR", "test": "ChIP analysis of histone H3 and H4 acetylation at TRR", "conditions": "PLC/PRF/5 cells; regardless of AzadC pretreatment; P<0.05", "method": "as §2\nChromatin is basically composed of histones and DNA. The histone status, that is, the methylation or acetylation status of histones is involved in the regulation of gene expression. Transcriptional activity is additionally dependent on the acetylation level of histones H3 and H4 in the promoter region. Moreover, TGFβ1-mediated transcription activation requires H3 acetylation (Ross S et al., EMBO J 25:4490-4502, 2006). Therefore, information about the transcriptional activity of the promoter region can be obtained by using the antibody against acetylated histone. […]"}, "[4]": {"tested_on": "phospho-SMAD2/3 binding to TRR", "test": "ChIP analysis of phosphorylated SMAD2/3 binding to TRR", "conditions": "both SK-Hep1 and PLC/PRF/5 cell lines", "method": "as §2\nThe present inventors performed ChIP analysis using the antibodies shown in Table 9 in the same manner as described in Example <6-1> in order to investigate the bindings of phosphorylated SMAD2/3, transcription inhibitor, methyl DNA binding protein, and DNMT (DNA methyltransferase), which are important factors involved in TGFβ1 signal transduction, in TRR (a). At this time, input was a part of cell extract obtained after fixing the cells in formaldehyde and DNA fractionation, which is the status right before immunoprecipitation with antibody."}, "c-Myc mRNA": {"tested_on": "c-Myc mRNA", "test": "c-Myc mRNA level after TGFβ1 (RT-PCR)", "method": "as §1\nSK-Hep1 and PLC/PRF/5 cells which had been pre-treated or not treated with AzadC for 72 hours were treated additionally with TGFβ1 for 0, 0.5, 1.0, 1.5, 2.0, and 2.5 hours. Then RT-PCR was performed with the cells by using the primer sets of Table 10 in the same manner as described in Example <1-2>."}, "[5]": {"tested_on": "SK-Hep1 and PLC/PRF/5 cells", "test": "Cell growth by MTT assay and crystal violet staining", "conditions": "TGFβ1 96 hours", "method": "MTT assay and crystal violet staining were performed with the cells. MTT (methylthiazoletetrazolium; Sigma-Aldrich) assay was performed by the informed technique (Mosmann T, J Immunol Methods 65:55-63, 1983) using μQuant Universal Microplate Spectrophotometer (Biotek Instruments, USA) at 570 nm. For crystal violet staining, the cells were fixed in 10% formaldehyde and stained in 10% crystal violet solution for 10 min at room temperature."}, "PLC/PRF/5 cells [6]": {"tested_on": "PLC/PRF/5 cells", "test": "Cell cycle by FACS after TTP knock-down", "method": "(§3) Lentiviral-based short hairpin RNAs (shRNAs) against TTP (Sigma-Aldrich; […] CTTTTT: SEQ. ID. NO. 40) or control shRNA targeting eGFP (Sigma-Aldrich) were transfected into PLC/PRF/5 cells and selected with 1 mg/l puromycin (Invitrogen). The selected PLC/PRF/5 transfectants were additionally treated with TGFβ1 for 0, 0.5, 1.0, 1.5, 2.0, and 2.5 hours. To investigate the half-life of c-Myc mRNA, actinomycin D was treated for 0, 15, 30, […], 60, and 75 minutes, and RT-PCR was performed with the cells.\nFACS was performed with the cells treated in Example <7-4>."}, "[7]": {"tested_on": "c-Myc mRNA in PLC/PRF/5 cells", "test": "c-Myc mRNA degradation and half-life after TTP knock-down (RT-PCR, actinomycin D)", "method": "as §3"}, "PLC/PRF/5 cells [8]": {"tested_on": "PLC/PRF/5 cells", "test": "Cell growth after TTP knock-down (MTT, crystal violet staining)", "method": "SK-Hep1 and PLC/PRF/5 cells were pre-treated or not treated with AzadC for 72 hours, to which TGFβ1 was additionally treated or not treated for 96 hours. MTT assay and crystal violet staining were performed with the cells. MTT (methylthiazoletetrazolium; Sigma-Aldrich) assay was performed by the informed technique (Mosmann T, J Immunol Methods 65:55-63, 1983) using μQuant Universal Microplate Spectrophotometer (Biotek Instruments, USA) at 570 nm. For crystal violet staining, the cells were fixed in 10% formaldehyde and stained in 10% crystal violet solution for 10 min at room temperature.\nas §3\nWestern blotting was performed with the cells treated in Example <7-4> in the same manner as described in Example <7-2-1> to investigate the levels of c-Mycand p21^Cip1. MTT and crystal violet staining were also performed in the same manner as described in Example <7-2-2>."}, "[9]": {"conditions": "PLC/PRF/5 cells (#2 CpG not methylated), TGFβ1 5 μg/l"}, "[10]": {"conditions": "PLC/PRF/5 cells, both before and after TGFβ1 treatment"}}, "data": [{"substance": "TGFβ1: Transforming growth factor beta 1, a multifunctional cytokine (R&D systems)", "values": [{"measurement": "time of peak TTP expression after TGFβ1 treatment", "setting": "[1]; [9]", "result": 1, "unit": "h"}, {"measurement": "time to increase of TTP expression after TGFβ1 treatment", "setting": "[1]; [9]", "result": "≤ 30", "unit": "min"}, {"measurement": "induction of TTP expression", "setting": "[1]; SK-Hep1 cells (high #2 CpG methylation), TGFβ1 alone 5 μg/l", "result": "not induced"}, {"measurement": "responsiveness of wild-type TTP promoter (WT) to TGFβ1, luciferase", "setting": "TTP promoter", "result": "not responsive"}, {"measurement": "binding of RNAPII proteins to the TTP locus", "setting": "[2]", "result": "significantly increased the binding of RNAPII proteins"}, {"measurement": "acetylation of histones H3 and H4 at TRR (region a)", "setting": "[3]", "result": "significantly increased"}, {"measurement": "binding of phospho-SMAD2/3 to TRR", "setting": "[4]", "result": "TGFβ1-dependent binding of phospho-SMAD2/3 to TRR was observed"}, {"measurement": "c-Myc level", "setting": "c-Myc mRNA; PLC/PRF/5 cells, TGFβ1 0-2.5 hours", "result": "rapidly decreased from 1 hour after TGFβ1 treatment"}, {"measurement": "c-Myc level decrease", "setting": "c-Myc mRNA; SK-Hep1 cells, TGFβ1 without AzadC", "result": "not in SK-Hep1 cells"}, {"measurement": "cell growth", "setting": "[5]", "result": "phenotypic growth inhibition"}, {"measurement": "size of the G2/M population following TGFβ1 treatment", "setting": "PLC/PRF/5 cells [6]; PLC/PRF/5 control cells (control shRNA)", "result": "decreased significantly"}]}, {"substance": "TTP knock-down: Lentiviral-based short hairpin RNA against TTP (Sigma-Aldrich), SEQ. ID. NO. 40, transfected into PLC/PRF/5 cells (CCGGGCTTCGCCAGAGCATCAGCTTCTCGAGAAGCTGATGCTCTGGCGAAGCTTTTT; expressed or natural sequence)", "values": [{"measurement": "half-life of c-Myc mRNA", "setting": "[7]; in the presence of actinomycin D, control 24 min", "result": 51, "unit": "min"}, {"measurement": "c-Myc mRNA degradation after TGFβ1 treatment", "setting": "[7]; shRNA-mediated knock-down of TTP", "result": "significantly retarded c-Myc mRNA degradation"}, {"measurement": "growth inhibitory effect of TGFβ", "setting": "PLC/PRF/5 cells [8]", "result": "blocking the growth inhibitory effect of TGFβ"}, {"measurement": "growth rate", "setting": "PLC/PRF/5 cells [8]", "result": "elevated the growth rate"}, {"measurement": "size of the G2/M population following TGFβ1 treatment", "setting": "PLC/PRF/5 cells [6]; PLC/PRF/5 TTP knock-down cells", "result": "remained unchanged"}, {"measurement": "relative size of the G1 and sub G1 populations", "setting": "PLC/PRF/5 cells [6]; [10]", "result": "decreased"}, {"measurement": "relative size of the S phase population", "setting": "PLC/PRF/5 cells [6]; [10]", "result": "increased"}]}]}
